Test results reported in PubChem BioAssay (NCI).
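GI50 marks 50% less growth. At the TGI there is no net growth.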

How the values were obtained:
Experiment in all cases: DTP human tumour cell line panel, 384-well format
786-0 renal = test system: 786-0 renal
A498 renal = test system: A498 renal
A549 NSCLC = test system: A549 NSCLC
ACHN renal = test system: ACHN renal
BT-549 breast = test system: BT-549 breast
CAKI-1 renal = test system: CAKI-1 renal
CCRF-CEM leukemia = test system: CCRF-CEM leukemia
COLO 205 colon = test system: COLO 205 colon
DU-145 prostate = test system: DU-145 prostate
EKVX NSCLC = test system: EKVX NSCLC
HCC-2998 colon = test system: HCC-2998 colon
HCT-116 colon = test system: HCT-116 colon
HCT-15 colon = test system: HCT-15 colon
HL-60(TB) leukemia = test system: HL-60(TB) leukemia
HOP-62 NSCLC = test system: HOP-62 NSCLC
HOP-92 NSCLC = test system: HOP-92 NSCLC
HS 578T breast = test system: HS 578T breast
HT29 colon = test system: HT29 colon
IGROV1 ovarian = test system: IGROV1 ovarian
K-562 leukemia = test system: K-562 leukemia
KM12 colon = test system: KM12 colon
LOX IMVI melanoma = test system: LOX IMVI melanoma
M14 melanoma = test system: M14 melanoma
MALME-3M melanoma = test system: MALME-3M melanoma
MCF7 breast = test system: MCF7 breast
MDA-MB-231 breast = test system: MDA-MB-231 breast
MDA-MB-435 melanoma = test system: MDA-MB-435 melanoma
MDA-MB-468 breast = test system: MDA-MB-468 breast
MOLT-4 leukemia = test system: MOLT-4 leukemia
NCI-H226 lung = test system: NCI-H226 lung
NCI-H23 lung = test system: NCI-H23 lung
NCI-H322M lung = test system: NCI-H322M lung
NCI-H460 NSCLC = test system: NCI-H460 NSCLC
NCI-H522 lung = test system: NCI-H522 lung
NCI/ADR-RES ovarian = test system: NCI/ADR-RES ovarian
OVCAR-3 ovarian = test system: OVCAR-3 ovarian
OVCAR-4 ovarian = test system: OVCAR-4 ovarian
OVCAR-5 ovarian = test system: OVCAR-5 ovarian
OVCAR-8 ovarian = test system: OVCAR-8 ovarian
PC-3 prostate = test system: PC-3 prostate
RPMI-8226 leukemia = test system: RPMI-8226 leukemia
RXF 393 renal = test system: RXF 393 renal
SF-268 CNS = test system: SF-268 CNS
SF-295 CNS = test system: SF-295 CNS
SF-539 CNS = test system: SF-539 CNS
SK-MEL-28 melanoma = test system: SK-MEL-28 melanoma
SK-MEL-5 melanoma = test system: SK-MEL-5 melanoma
SK-OV-3 ovarian = test system: SK-OV-3 ovarian
SN12C renal = test system: SN12C renal
SNB-19 CNS = test system: SNB-19 CNS
SNB-75 CNS = test system: SNB-75 CNS
SR leukemia = test system: SR leukemia
SW-620 colon = test system: SW-620 colon
T-47D breast = test system: T-47D breast
TK-10 renal = test system: TK-10 renal
U251 glioblastoma = test system: U251 glioblastoma
UACC-257 melanoma = test system: UACC-257 melanoma
UO-31 renal = test system: UO-31 renal

Work on `O=C(NO)c1ccc(CN(c2cnccn2)c2cnccn2)cc1` yielded a GI50 ([…]-0 renal) of 14.5 µM, a TGI (786-0 renal) of 27.8 µM and a GI50 (A498 renal) of 11.9 µM. The TGI (A498 renal) was 25.8 µM, the GI50 (A549 NSCLC) was 13.8 µM and the TGI (A549 NSCLC) was 27.1 µM. The GI50 (ACHN renal) was 11.2 µM, the TGI (ACHN renal) was 23.8 µM and the GI50 (BT-549 breast) was 11.5 µM. The TGI (BT-549 breast) was 24.1 µM, the GI50 (CAKI-1 renal) was 12.4 µM and the TGI (CAKI-1 renal) was 26 µM. For the same compound, the GI50 (CCRF-CEM leukemia) was 2.32 µM, the TGI (CCRF-CEM leukemia) was 4.28 µM and the GI50 (COLO 205 colon) was 3.36 µM. The TGI (COLO 205 colon) was 8.11 µM, the GI50 (DU-145 prostate) was 3.71 µM and the TGI (DU-145 prostate) was 13.1 µM. The GI50 (EKVX NSCLC) was 7.91 µM, the TGI (EKVX NSCLC) was 20.2 µM and the GI50 (HCC-2998 colon) was 12 µM. For the same compound, the TGI (HCC-2998 colon) was 24.4 µM, the GI50 (HCT-116 colon) was 3.01 µM and the TGI (HCT-116 colon) was 11.2 µM. For the same compound, the GI50 (HCT-15 colon) was 11.7 µM, the TGI (HCT-15 colon) was 24.3 µM and the GI50 (HL-60(TB) leukemia) was 7.18 µM. It also gave a TGI (HL-60(TB) leukemia) of 18.9 µM, a GI50 (HOP-62 NSCLC) of 12.4 µM and a TGI (HOP-62 NSCLC) of 25.5 µM. It also gave a GI50 (HOP-92 NSCLC) of 11.9 µM, a TGI (HOP-92 NSCLC) of 24.5 µM and a GI50 (HS 578T breast) of 10.5 µM. It also gave a TGI (HS 578T breast) of 22.4 µM, a GI50 (HT29 colon) of 15.6 µM and a TGI (HT29 colon) of 29.7 µM. The GI50 (IGROV1 ovarian) was 11.8 µM, the TGI (IGROV1 ovarian) was 24.1 µM and the GI50 (K-562 leukemia) was 7.51 µM. The TGI (K-562 leukemia) was 20.2 µM, the GI50 (KM12 colon) was 3.31 µM and the TGI (KM12 colon) was 12.3 µM. For the same compound, the GI50 (LOX IMVI melanoma) was 7.46 µM, the TGI (LOX IMVI melanoma) was 19.8 µM and the GI50 (M14 melanoma) was 3.93 µM. The TGI (M14 melanoma) was 14.3 µM, the GI50 (MALME-3M melanoma) was 3.38 µM and the TGI (MALME-3M melanoma) was 12.6 µM. The GI50 (MCF7 breast) was 4.65 µM, the TGI (MCF7 breast) was 19.4 µM and the GI50 (MDA-MB-231 breast) was 15.7 µM. For the same compound, the TGI (MDA-MB-231 breast) was 29.4 µM, the GI50 (MDA-MB-435 melanoma) was 4.96 µM and the TGI (MDA-MB-435 melanoma) was 15 µM. It also gave a GI50 (MDA-MB-468 breast) of 2.49 µM, a TGI (MDA-MB-468 breast) of 10 µM and a GI50 (MOLT-4 leukemia) of 1.92 µM. For the same compound, the TGI (MOLT-4 leukemia) was 3.52 µM, the GI50 (NCI-H226 lung) was 12.4 µM and the TGI (NCI-H226 lung) was 25.1 µM. It also gave a GI50 (NCI-H23 lung) of 2.01 µM, a TGI (NCI-H23 lung) of 3.96 µM and a GI50 (NCI-H322M lung) of 9.66 µM. For the same compound, the TGI (NCI-H322M lung) was 22.4 µM, the GI50 (NCI-H460 NSCLC) was 10.2 µM and the TGI (NCI-H460 NSCLC) was 22.1 µM. For the same compound, the GI50 (NCI-H522 lung) was 4.84 µM, the TGI (NCI-H522 lung) was 16.2 µM and the GI50 (NCI/ADR-RES ovarian) was 4.36 µM. It also gave a TGI (NCI/ADR-RES ovarian) of 15.1 µM, a GI50 (OVCAR-3 ovarian) of 3.27 µM and a TGI (OVCAR-3 ovarian) of 12.2 µM. The GI50 (OVCAR-4 ovarian) was 5.94 µM, the TGI (OVCAR-4 ovarian) was 19 µM and the GI50 (OVCAR-5 ovarian) was 11 µM. The TGI (OVCAR-5 ovarian) was 31.2 µM, the GI50 (OVCAR-8 ovarian) was 1.81 µM and the TGI (OVCAR-8 ovarian) was 3.86 µM. For the same compound, the GI50 (PC-3 prostate) was 7.66 µM, the TGI (PC-3 prostate) was 20.9 µM and the GI50 (RPMI-8226 leukemia) was 1.35 µM. The TGI (RPMI-8226 leukemia) was 2.81 µM, the GI50 (RXF 393 renal) was 3.83 µM and the TGI (RXF 393 renal) was 14.2 µM. For the same compound, the GI50 (SF-268 CNS) was 8.01 µM, the TGI (SF-268 CNS) was 20.9 µM and the GI50 (SF-295 CNS) was 2.62 µM. The TGI (SF-295 CNS) was 6.48 µM, the GI50 (SF-539 CNS) was 2.95 µM and the TGI (SF-539 CNS) was 10.6 µM. For the same compound, the GI50 (SK-MEL-28 melanoma) was 2.93 µM, the TGI (SK-MEL-28 melanoma) was 7.33 µM and the GI50 (SK-MEL-5 melanoma) was 4.27 µM. The TGI (SK-MEL-5 melanoma) was 12.8 µM, the GI50 (SK-OV-3 ovarian) was 12.2 µM and the TGI (SK-OV-3 ovarian) was 25.1 µM. The GI50 (SN12C renal) was 14.7 µM, the TGI (SN12C renal) was 28.1 µM and the GI50 (SNB-19 CNS) was 13 µM. For the same compound, the TGI (SNB-19 CNS) was 26.6 µM, the GI50 (SNB-75 CNS) was 5.98 µM and the TGI (SNB-75 CNS) was 18.2 µM. For the same compound, the GI50 (SR leukemia) was 1.77 µM, the TGI (SR leukemia) was 3.87 µM and the GI50 (SW-620 colon) was 10.6 µM. The TGI (SW-620 colon) was 22.7 µM, the GI50 (T-47D breast) was 5.59 µM and the TGI (T-47D breast) was 17.6 µM. It also gave a GI50 (TK-10 renal) of 12.9 µM, a TGI (TK-10 renal) of 26.4 µM and a GI50 (U251 glioblastoma) of 4.7 µM. For the same compound, the TGI (U251 glioblastoma) was 15.6 µM, the GI50 (UACC-257 melanoma) was 5.02 µM and the TGI (UACC-257 melanoma) was 17.8 µM. For the same compound, the GI50 (UO-31 renal) was 13.5 µM and the TGI (UO-31 renal) was 26.6 µM.
